Tests used:
[1] = system: influenza HA vaccine (influenza virus A/PR/8/34); parameters: species or system BALB/c mice; settings: mouse, in vivo, po
[2] = system: rotavirus vaccine; format: in vivo, mice; settings: blood
[3] = system: pertussis-diphtheria-tetanus combined vaccine; parameters: species or system mice; settings: mouse, in vivo, po
[4] = system: Mycoplasma; format: in vivo, mice
[5] = system: influenza HA vaccine; settings: mouse, in vivo
[6] = system: measles-rubella vaccine; format: in vivo, mice; settings: blood; vaccine nasal twice at 3-week intervals; adjuvant oral before and after first inoculation

## CCCCC[C@H](O)[C@H](O)/C=C/[C@H](O)CCCCCCCC(=O)O [9R,12R,13S-trihydroxy-10E-octadecenoic acid]
[1]
  titer of anti-influenza virus IgA antibody in nasal irrigation liquids: strongly enhanced
  titer of anti-influenza virus IgG1 antibody in nasal irrigation liquids: strongly enhanced

## CCCCC[C@H](O)[C@@H](O)/C=C/[C@@H](O)CCCCCCCC(=O)OC [methyl ester derivative, methyl 9S,12S,13S-trihydroxy-10E-octadecenoate]
[2]; rotavirus vaccine inoculated orally
  ELISA titer of antibody produced, vaccine inoculated orally: 0.27
[2]; rotavirus vaccine nasal twice at 3-week intervals, adjuvant oral before and after first inoculation
  ELISA titer of antibody produced, nasal vaccine drop: 0.38

## CCCCC[C@H](O)[C@@H](O)/C=C/[C@@H](O)CCCCCCCC(=O)O [9S,12S,13S-trihydroxy-10E-octadecenoic acid]
[3]
  level of anti-DT-IgA antibody in the nasal irrigation liquid: 11 ELISA units
  level of anti-PT-IgA antibody in the nasal irrigation liquid: 14 ELISA units
  level of anti-TT-IgA antibody in the nasal irrigation liquid: 11 ELISA units
  level of anti-diphtheria toxoid (DT)-IgG antibody in the blood: 70 ELISA units
  level of anti-pertussis toxin (PT)-IgG antibody in the blood: 442 ELISA units
  level of anti-tetanus toxoid (TT)-IgG antibody in the blood: 75 ELISA units
[4]; mouse, in vivo, po
  mice with lesions associated with Mycoplasma infection: 3 of 10
[4]; vaccine intranasal three times at 2-week intervals, adjuvant oral before and after first inoculation
  average number of lesions: 178
[5]
  titer of anti-influenza vaccine IgE antibody in the bronchoalveolar irrigation liquid: significantly decreased
[6]
  ELISA titer of antibody produced for measles: 0.30
  ELISA titer of antibody produced for rubella: 0.29
[1]
  titer of anti-influenza virus IgA antibody in nasal irrigation liquids: strongly enhanced
  titer of anti-influenza virus IgA antibody in the sera: significantly increased
  titer of anti-influenza virus IgG1 antibody in nasal irrigation liquids: strongly enhanced
  titer of anti-influenza virus IgG1 antibody in the sera: significantly increased

## CCCCC[C@H](O)[C@H](O)/C=C/[C@@H](O)CCCCCCCC(=O)O [9S,12R,13S-trihydroxy-10E-octadecenoic acid]
[1]
  titer of anti-influenza virus IgA antibody in nasal irrigation liquids: strongly enhanced
  titer of anti-influenza virus IgG1 antibody in nasal irrigation liquids: strongly enhanced

From US7560484B2 (priority 2000, dated 2009)
